This note sets out measurements from patent US20260055113A1, “HETEROARYL COMPOUNDS FOR THE TREATMENT OF CANCER” (Hoffmann-La Roche Inc., priority 2022, published 2026).

Series [1] is described as follows: Human microsomal stability assay. The class given is in vitro ADME. As to conditions: human liver microsomes 0.5 mg/mL, 1 μM test compound, 37° C., pH 7.4. The procedure:
Human liver microsomes (Cat. NO.: 452117, Corning, USA) were preincubated with test compound for 10 minutes at 37° C. in 100 mM potassium phosphate buffer, pH 7.4. The reactions were initiated by adding NADPH regenerating system. The final incubation mixtures contained 1 μM test compound, 0.5 mg/mL liver microsomal protein, 1 mM MgCl2, 1 mM NADP, 1 unit/mL isocitric dehydrogenase and 6 mM isocitric acid in 100 mM potassium phosphate buffer, pH 7.4. After incubation times of 0, 3, 6, 9, 15 and 30 minutes at 37° C., 300 μL of cold ACN (including internal standard) was added to 100 μL incubation mixture to terminate the reaction. Following precipitation and centrifugation, 100 μL supernatant will be taken out and added 300 μL water. The amount of compound remaining in the samples was determined by LC-MS/MS. Controls of no NADPH regenerating system at zero and 30 minutes were also prepared and analyzed. The results were categorized as: low (<7.0 mL/min/kg), medium (7.0-16.2 mL/min/kg) and high (16.2-23.2 mL/min/kg).
For orientation: Liver microsomes are vesicles of endoplasmic reticulum, rich in cytochrome P450 enzymes.

For series [2], the target named is T1, CD73 (Homo sapiens (Human), UniProt P21589). Description: CD73 cellular assay (MDA-MB-231 cells, malachite readout). The class given is cell-based. As to conditions: AMP substrate, 45 min, read-out: Cellular IC50 against CD73. As to the method:
After incubating with compounds for 30 minutes, 40 μL of AMP working solution (200 μM AMP in assay buffer) was added into each well in the assay plate. The assay plate was then incubated in a 5% CO2 incubator (Thermo Fisher Scientific) at 37° C. for 45 min. After the reaction was completed, 50 μL of the supernatants was collected and transferred into a new 384 well plate. 10 μL of Malachite A was added to each well in the assay plate and incubated for 10 minutes. 10 μL of Malachite B was then added to each corresponding well of the plate and incubated for 30 minutes.
Target sequence in this assay (P21589 27-574): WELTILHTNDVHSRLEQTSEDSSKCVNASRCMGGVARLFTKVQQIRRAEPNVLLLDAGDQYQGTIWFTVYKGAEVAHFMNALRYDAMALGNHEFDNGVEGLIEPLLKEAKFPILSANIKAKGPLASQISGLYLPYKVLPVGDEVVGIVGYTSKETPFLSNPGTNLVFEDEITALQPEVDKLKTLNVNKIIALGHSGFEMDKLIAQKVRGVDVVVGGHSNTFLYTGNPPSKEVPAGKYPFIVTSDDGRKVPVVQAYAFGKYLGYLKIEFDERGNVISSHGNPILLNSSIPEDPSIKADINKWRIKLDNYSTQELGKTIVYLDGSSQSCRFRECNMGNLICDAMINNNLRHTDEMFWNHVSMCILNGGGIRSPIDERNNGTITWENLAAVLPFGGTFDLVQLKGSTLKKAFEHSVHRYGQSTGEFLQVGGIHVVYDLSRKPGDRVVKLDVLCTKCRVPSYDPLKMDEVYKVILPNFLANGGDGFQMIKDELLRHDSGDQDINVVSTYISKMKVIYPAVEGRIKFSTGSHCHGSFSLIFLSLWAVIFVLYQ

The target in series [3] is T1, CD73. As to the kind of experiment: CD73 potency assay using LC/MS (enzymatic). As to conditions: 0.05 nM recombinant CD73 protein, LC/MS adenosine readout; read-out: Enzymatic IC50 against CD73. The series is classed as biochemical. As to the method: The purpose of this assay is to identify and characterize inhibitors of CD73 enzymatic activity. […] 10 μL of enzyme working solution (containing 0.05 nM recombinant CD73 protein, 10 mM Tris pH 7.5, 100 mM NaCl, 0.01% BSA, 0.2 mM Octyl glucoside) was added to the assay plate and incubated with compounds for 15 minutes at room temperature. After adding 15 μL of AMP working solution (Containing 10 mM Tris pH 7.5, 100 mM NaCl, 0.01% BSA, 0.2 mM Octyl glucoside, with 1000 μM of AMP final concentration) and incubate for 10 min at room temperature. […] After centrifugation, 75 μL of the mixture was transferred to a new 384-well plate for LC/MS analysis.
Samples from the 384-well plates, were loaded onto an autosampler deck, then injected with ADDA-LC-MS/MS. The aqueous mobile phase is 0.1% formic acid in water. The organic mobile phase is 0.1% formic acid in acetonitrile. Flow rate is maintained at 0.8 mL/minute using Shimadzu pumps. The column is ACE 5 Phenyl, 50×2.1 mm. The analysis was performed on a SCIEX triple quadrupole mass spectrometer operating in positive ion mode. The effluent from the HPLC column was directly introduced into the electrospray ionization (ESI). Multiple reaction monitoring (MRM) is used to determine analyte and internal standard (IS) responses. […] The data is calculated using the peak area ratio (PAR) semi-quantitative method.
Target sequence in this assay (P21589 27-574, species assumed): as the sequence (P21589 27-574) above

Take `Cn1nc(C2CC2)c2cc(-c3c[nH]c(=O)[nH]c3=O)nnc21` [Example 2, 5-(3-cyclopropyl-1-methyl-pyrazolo[3,4-c]pyridazin-5-yl)-1H-pyrimidine-2,4-dione]: the “CL (h)” value in series [1] was determined as 8.52 mL/min/kg. The results for the IC50 in series [2] and in series [3] were 10.2 nM and 0.89 nM, respectively.

With `Cn1nc(-c2ccnn2Cc2ccccc2)c2cc(-c3c[nH]c(=O)[nH]c3=O)nnc21` [Example 7, 5-[3-(2-benzylpyrazol-3-yl)-1-methyl-pyrazolo[3,4-c]pyridazin-5-yl]-1H-pyrimidine-2,4-dione], the “CL (h)” value in series [1] is reported as 9.85 mL/min/kg. The IC50 (commonly the concentration that gives 50% inhibition) came out at 11.4 nM in series [2] and 1.94 nM in series [3].

In the case of `CC(C)Oc1nn(C)c2nnc(-c3c[nH]c(=O)[nH]c3=O)cc12` [Example 8, 5-(3-isopropoxy-1-methyl-pyrazolo[3,4-c]pyridazin-5-yl)-1H-pyrimidine-2,4-dione], the IC50 in series [2] is 13.3 nM; in series [3], 3.88 nM.

As to `CC(Oc1nn(C)c2nnc(-c3c[nH]c(=O)[nH]c3=O)cc12)c1cccnc1` (centres unmarked) [Example 18, 5-[1-methyl-3-[1-(3-pyridyl)ethoxy]pyrazolo[3,4-c]pyridazin-5-yl]-1H-pyrimidine-2,4-dione], the “CL (h)” value in series [1] was 6.22 mL/min/kg. In addition, the IC50 in series [2] amounted to 4.3 nM.

As to `CC(Oc1nn(C)c2nnc(-c3c[nH]c(=O)[nH]c3=O)cc12)c1ccncc1` (centres unmarked) [Example 19, 5-[1-methyl-3-[1-(4-pyridyl)ethoxy]pyrazolo[3,4-c]pyridazin-5-yl]-1H-pyrimidine-2,4-dione], in series [1], the “CL (h)” value is 9.03 mL/min/kg. In series [2], the IC50 turned out to be 3.9 nM.

On to `CC(Oc1nn(C)c2nnc(-c3c[nH]c(=O)[nH]c3=O)cc12)c1cccc(C(F)(F)F)c1` (centres unmarked) [Example 20, 5-[1-methyl-3-[1-[3-(trifluoromethyl)phenyl]ethoxy]pyrazolo[3,4-c]pyridazin-5-yl]-1H-pyrimidine-2,4-dione], for which, in series [1], the “CL (h)” value is 6.36 mL/min/kg. Besides, the IC50 in series [2] came out at 6.9 nM.

For `Cc1nc(C(C)Oc2nn(C)c3nnc(-c4c[nH]c(=O)[nH]c4=O)cc23)cs1` (centres unmarked) [Example 21, 5-[1-methyl-3-[1-(2-methylthiazol-4-yl)ethoxy]pyrazolo[3,4-c]pyridazin-5-yl]-1H-pyrimidine-2,4-dione], the “CL (h)” value in series [1] was 6.32 mL/min/kg. Moreover, the IC50 in series [2] was 4.6 nM; in series [3], 0.65 nM.

Regarding `Cc1cnc(C(C)Oc2nn(C)c3nnc(-c4c[nH]c(=O)[nH]c4=O)cc23)s1` (centres unmarked) [Example 22, 5-[1-methyl-3-[1-(5-methylthiazol-2-yl)ethoxy]pyrazolo[3,4-c]pyridazin-5-yl]-1H-pyrimidine-2,4-dione], the “CL (h)” value in series [1] was determined as 8.14 mL/min/kg. Also, in series [2], the IC50 was determined as 3.9 nM.

In the case of `CC(Oc1nn(C)c2nnc(-c3c[nH]c(=O)[nH]c3=O)cc12)c1ccnn1C` (centres unmarked) [Example 24, 5-[1-methyl-3-[1-(2-methylpyrazol-3-yl)ethoxy]pyrazolo[3,4-c]pyridazin-5-yl]-1H-pyrimidine-2,4-dione], the “CL (h)” value in series [1] was 6.26 mL/min/kg. Further, the IC50 in series [2] was 19.6 nM.

Regarding `CC(Oc1nn(C)c2nnc(-c3c[nH]c(=O)[nH]c3=O)cc12)c1nc2ccccc2o1` (centres unmarked) [Example 25, 5-[3-[1-(1,3-benzoxazol-2-yl)ethoxy]-1-methyl-pyrazolo[3,4-c]pyridazin-5-yl]-1H-pyrimidine-2,4-dione], the “CL (h)” value in series [1] is recorded as 8.85 mL/min/kg. In series [2], the IC50 worked out at 8 nM.

For `Cn1nc(O[C@H](c2ccccn2)C(F)(F)F)c2cc(-c3c[nH]c(=O)[nH]c3=O)nnc21` [Example 29A, 5-[1-methyl-3-[(1R)-2,2,2-trifluoro-1-(2-pyridyl)ethoxy]pyrazolo[3,4-c]pyridazin-5-yl]-1H-pyrimidine-2,4-dione], the “CL (h)” value in series [1] came out at 6.15 mL/min/kg. Besides, the IC50 was 3.4 nM in series [2] and 0.38 nM in series [3].

Take `Cn1nc(O[C@H](c2ccccc2)C(F)(F)F)c2cc(-c3c[nH]c(=O)[nH]c3=O)nnc21` [Example 30A, 5-[1-methyl-3-[(1R)-2,2,2-trifluoro-1-phenyl-ethoxy]pyrazolo[3,4-c]pyridazin-5-yl]-1H-pyrimidine-2,4-dione]: in series [1], the “CL (h)” value was 6.15 mL/min/kg. Besides, the values for the half-inhibitory concentration (IC50) in series [2] and in series [3] were 1.6 nM and 0.15 nM, respectively.

Turning to `CN(c1nn(C)c2nnc(-c3c[nH]c(=O)[nH]c3=O)cc12)C1CCCC1` [Example 36, 5-[3-[cyclopentyl(methyl)amino]-1-methyl-pyrazolo[3,4-c]pyridazin-5-yl]-1H-pyrimidine-2,4-dione], in series [1], the “CL (h)” value is listed as 6.15 mL/min/kg. The IC50 was found to be 8.6 nM in series [2] and 2.23 nM in series [3].

For the compound `C[C@H](Nc1nn(C)c2nnc(-c3c[nH]c(=O)[nH]c3=O)cc12)c1ccccc1` [Example 37, 5-[1-methyl-3-[[(1S)-1-phenylethyl]amino]pyrazolo[3,4-c]pyridazin-5-yl]-1H-pyrimidine-2,4-dione], in series [1], the “CL (h)” value came to 6.15 mL/min/kg. For the same compound, in series [2], the IC50 came out at 4 nM.

In the case of `C[C@@H](c1ccccc1)N(C)c1nn(C)c2nnc(-c3c[nH]c(=O)[nH]c3=O)cc12` [Example 38, 5-[1-methyl-3-[methyl-[(1S)-1-phenylethyl]amino]pyrazolo[3,4-c]pyridazin-5-yl]-1H-pyrimidine-2,4-dione], the “CL (h)” value in series [1] was 9.3 mL/min/kg. In addition, the IC50 was determined as 1.6 nM in series [2] and 0.25 nM in series [3].

`Cn1nc(C2CCC2)c2cc(-c3c[nH]c(=O)[nH]c3=O)nnc21` [Example 39, 5-(3-cyclobutyl-1-methyl-pyrazolo[3,4-c]pyridazin-5-yl)-1H-pyrimidine-2,4-dione]: the “CL (h)” value in series [1] turned out to be 6.15 mL/min/kg. Also, the IC50 in series [2] amounted to 3.5 nM; in series [3], 0.7 nM.

As to `Cc1ccnc([C@H](C)Oc2nn(C)c3nnc(-c4c[nH]c(=O)[nH]c4=O)cc23)c1` [Example 42, 5-[1-methyl-3-[(1S)-1-(4-methyl-2-pyridyl)ethoxy]pyrazolo[3,4-c]pyridazin-5-yl]-1H-pyrimidine-2,4-dione], the “CL (h)” value in series [1] is listed as 7.78 mL/min/kg. The IC50 in series [2] is 4.1 nM.

For the compound `C[C@H](Oc1nn(C)c2nnc(-c3c[nH]c(=O)[nH]c3=O)cc12)c1ccc(F)cn1` [Example 43, 5-[3-[(1S)-1-(5-fluoro-2-pyridyl)ethoxy]-1-methyl-pyrazolo[3,4-c]pyridazin-5-yl]-1H-pyrimidine-2,4-dione], in series [1], the “CL (h)” value was determined as 6.15 mL/min/kg. Moreover, the IC50 in series [2] was determined as 3.7 nM.

In the case of `C[C@H](Oc1nn(C)c2nnc(-c3c[nH]c(=O)[nH]c3=O)cc12)c1cccc(Cl)n1` [Example 44, 5-[3-[(1S)-1-(6-chloro-2-pyridyl)ethoxy]-1-methyl-pyrazolo[3,4-c]pyridazin-5-yl]-1H-pyrimidine-2,4-dione], in series [1], the “CL (h)” value was 6.15 mL/min/kg. For the same compound, the IC50 in series [2] amounted to 2.3 nM.

As to `C[C@H](Oc1nn(C)c2nnc(-c3c[nH]c(=O)[nH]c3=O)cc12)c1ccc(Cl)nn1` [Example 45, 5-[3-[(1S)-1-(6-chloropyridazin-3-yl)ethoxy]-1-methyl-pyrazolo[3,4-c]pyridazin-5-yl]-1H-pyrimidine-2,4-dione], the “CL (h)” value in series [1] worked out at 6.15 mL/min/kg. Moreover, the concentration for half-maximal inhibition (IC50) in series [2] came out at 9.9 nM.

Regarding `O=c1[nH]cc(-c2cc3c(C4CCC4)noc3nn2)c(=O)[nH]1` [Example 46, 5-(3-cyclobutylisoxazolo[5,4-c]pyridazin-5-yl)-1H-pyrimidine-2,4-dione], the IC50 in series [2] is 10.4 nM; in series [3] it was 2 nM.
